Measured values taken from publication PMC13586308, “Cell type–selective targeting by heterobifunctional protein binders via in-cell enrichment” (Nature Communications, 2026).
Like-named read-outs stand apart in the source and are kept apart here.

Experiments:
[1] = molecular target: T1, FKBP12 (Homo sapiens, UniProt P62942); assay: competitive fluorescence polarization assay, binding to FKBP12; conditions: competitive FP assay
[2] = molecular target: T2, BRD4^BD2 (Homo sapiens, UniProt O60885); assay: competitive fluorescence polarization assay, BRD4 BD2 -/+ presenter protein; type: binding; conditions: for α BRD4^BD2 (binding cooperativity factor): ratio of binding in absence or presence of FKBP12
T2 construct: to the isolated BD1 and BD2 domains of BRD2, BRD3 and BRD4

[3] = molecular target: T3, BRD4 (Homo sapiens, UniProt O60885); assay: NanoBRET BRD4, transient BRD4-NanoLuc in HEK293T cells; type: cell-based; conditions: intact HEK293 cells
T3 construct: full-length BRD4 fused to NanoLuc at N terminus; expressed in transfected cells; host or cells: HEK293T
Procedure: The NanoBRET assay was performed as described previously[26],[39]. To study BRD4 engagement, we employed two models: cells stably expressing BRD4-NanoLuc and cells with transient BRD4-NanoLuc expression. For stable cell lines, the coding sequence of human BRD4 (Isoform B) was fused in-frame to NanoLuc luciferase under the control of the human ubiquitin C (UbC) promoter, with left and right homology arms targeting the AAVS1 locus in intron 1 of the PPP1R12C gene to facilitate genomic integration. PC3 prostate cancer cells were transfected with this construct and vectors expressing Cas9 and an sgRNA targeting the AAVS1 locus using Lipofectamine 3000 (Invitrogen). Successful integrands were selected with blasticidin. Expression of the fusion protein was confirmed by western blot. For transient experiments, full-length BRD4 fused to NanoLuc at N terminus, was cloned into an expression plasmid and transfected into HEK293T cells using FuGENE HD (Promega, E2312), with protein expression allowed for 20 h. Serially diluted inhibitors and BRD Tracer-02 (Promega, TracerDB ID: T000022) at the Tracer KD concentration (from TracerDB)[40] were dispensed into white 384-well plates (Greiner 781207) using an ECHO 550 acoustic dispenser (Labcyte). The cells were trypsinized, resuspended in Opti-MEM without phenol red (Life Technologies), and seeded at 2 × 10^5 cells/mL. After equilibration for 2 h at 37 °C/5% CO₂ following compound treatment, the NanoBRET® NanoGlo Substrate + Extracellular NanoLuc® Inhibitor (Promega, N2162) was added according to the manufacturer’s protocol, and filtered luminescence was measured on a PHERAstar plate reader (BMG Labtech) using a donor (450 nm BP) and acceptor (610 nm LP) filter pair. Competitive displacement data were analyzed using GraphPad Prism 9 with a normalized 3-parameter curve fit: Y = 100/(1 + 10^(X − log IC₅₀)). For BRET measurements after FKBP12 knockdown in stably expressing BRD4 Nano-Luc reporter cell line, 10 nL/per well of the FKBP12 PROTAC was pipetted to each well using Labcyte to achieve the final concentration of 200 nM and the plated cells were incubated over-night at 37 °C and 5% CO2. BRET measurements were performed as outlined above.

[4] = molecular target: T1, FKBP12; assay: NanoBRET FKBP12 in intact HEK293 cells; type: cell-based
[5] = molecular target: T4, BRD4^BD1 (Homo sapiens, UniProt O60885); assay: competitive fluorescence polarization assay, BRD4 BD1 -/+ presenter protein; type: binding; conditions: for α BRD4^BD1 (binding cooperativity factor): ratio of binding in absence or presence of FKBP12
T4 construct: to the isolated BD1 and BD2 domains of BRD2, BRD3 and BRD4

[6] = absence of FKBP12, 2 nM JQ1-FL tracer, read-out: Binding to BRD4^BD2 - FKBP12 Kd
[7] = presence of 15 µM FKBP12, read-out: Binding to BRD4^BD2 + FKBP12 Kd (converted)
[8] = absence of FKBP12, 2 nM JQ1-FL tracer, read-out: Binding to BRD4^BD1 - FKBP12 Kd
[9] = presence of 15 µM FKBP12, read-out: Binding to BRD4^BD1 + FKBP12 Kd (converted)

T1 sequence (P62942 whole entry): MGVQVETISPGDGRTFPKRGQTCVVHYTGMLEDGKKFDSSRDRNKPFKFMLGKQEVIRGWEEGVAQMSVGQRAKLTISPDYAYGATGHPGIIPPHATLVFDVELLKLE

Compound | Kd [1] [nM] | Kd [2, 6] [nM] | Kd [2, 7] [nM] | α BRD4^BD2 (binding cooperativity factor) [2] | IC50 [3] [nM] | IC50 [4] [nM] | Kd [5, 8] [nM] | Kd [5, 9] [nM] | α BRD4^BD1 (binding cooperativity factor) [5] | nanoBRET BRD4 IC50 [3]
C=CC1CN(Cc2cn(CCOCCOCCNC(=O)CC3N=C(c4ccc(Cl)cc4)c4c(sc(C)c4C)-n4c(C)nnc43)nn2)C(=O)C2CCCC1N2S(=O)(=O)c1cc(Cl)cc(Cl)c1 (centres unmarked) [a2i] | 8.7 | 140 ± 30 | 960 ± 120 | 0.1 | 790 | 180 | 330 ± 40 | 290 ± 30 | 1.1 | –
Cc1sc2c(c1C)C(c1ccc(Cl)cc1)=NC(CC(=O)N1CC(CN3CCC(n4cc(C5CN(Cc6ccccn6)C(=O)C6CCCC5N6S(=O)(=O)c5cc(Cl)cc(Cl)c5)nn4)CC3)C1)c1nnc(C)n1-2 (centres unmarked) [a11c] | 0.7 | – | 450 ± 70 | 4.7 | 1230 | 218 | – | 190 ± 30 | 5.3 | –
Cc1sc2c(c1C)C(c1ccc(Cl)cc1)=NC(CC(=O)N1CCC(N3CCC(Cn4cc(COCC5CN(Cc6ccccn6)C(=O)C6CCCC5N6S(=O)(=O)c5cc(Cl)cc(Cl)c5)nn4)CC3)CC1)c1nnc(C)n1-2 (centres unmarked) [a10d] | 1.6 | 170 ± 30 | 80 ± 20 | 2.1 | – | 241 | 140 ± 30 | 100 ± 30 | 1.4 | none
Cc1sc2c(c1C)C(c1ccc(Cl)cc1)=NC(CC(=O)N1CCC(CN3CCC(Cn4cc(C5CN(Cc6ccccn6)C(=O)C6CCCC5N6S(=O)(=O)c5cc(Cl)cc(Cl)c5)nn4)CC3)CC1)c1nnc(C)n1-2 (centres unmarked) [a8c] | 2.1 | 190 ± 30 | 160 ± 30 | 1.2 | 541 | 178 | 170 ± 20 | 150 ± 20 | 1.1 | –
C=C[C@H]1CN(Cc2ccccn2)C(=O)[C@@H]2CCC[C@H]1N2S(=O)(=O)c1ccc(-c2cn(CCOCCOCCNC(=O)C[C@@H]3N=C(c4ccc(Cl)cc4)c4c(sc(C)c4C)-n4c(C)nnc43)nn2)c(Cl)c1 [a2h] | 2.4 | 46 ± 10 | 1300 ± 200 | – | 300 | 170 | 210 ± 18 | 2400 ± 200 | – | –
Cc1sc2c(c1C)C(c1ccc(Cl)cc1)=NC(CC(=O)NCCOCCn1cc(COCC3CN(CC(=O)N4CCC(C)CC4)C(=O)C4CCCC3N4S(=O)(=O)c3cc(Cl)cc(Cl)c3)nn1)c1nnc(C)n1-2 (centres unmarked) [a1dk] | 0.47 | 320 ± 60 | 800 ± 100 | 0.4 | 1190 | 9.1 | 520 ± 90 | 200 ± 40 | 2.6 | –
C=CC1CN(Cc2cn(CCOCCNC(=O)CC3N=C(c4ccc(Cl)cc4)c4c(sc(C)c4C)-n4c(C)nnc43)nn2)C(=O)C2CCCC1N2S(=O)(=O)c1cc(Cl)cc(Cl)c1 (centres unmarked) [a1i] | 10 | 910 ± 160 | – | 0.3 | 560 | 200 | – | – | 0.5 | –
C=CC1CN(Cc2ccccn2)C(=O)C2CCCC1N2S(=O)(=O)c1ccc(-c2cn(CCOCCNC(=O)CC3N=C(c4ccc(Cl)cc4)c4c(sc(C)c4C)-n4c(C)nnc43)nn2)c(Cl)c1 (centres unmarked) [a1h] | 50 | 52 ± 13 | 1100 ± 200 | – | 270 | 530 | 100 ± 18 | 1700 ± 200 | – | –
Cc1sc2c(c1C)C(c1ccc(Cl)cc1)=NC(CC(=O)N1CC(CN3CCC(Cn4cc(C5CN(Cc6ccccn6)C(=O)C6CCCC5N6S(=O)(=O)c5cc(Cl)cc(Cl)c5)nn4)CC3)C1)c1nnc(C)n1-2 (centres unmarked) [a12c] | 1.8 | 800 ± 100 | 700 ± 90 | 1.1 | 748 | 280 | 390 ± 50 | 230 ± 20 | 1.7 | –
Cc1sc2c(c1C)C(c1ccc(Cl)cc1)=NC(CC(=O)N1CCN(CCCCn3cc(COCC4CN(Cc5ccccn5)C(=O)C5CCCC4N5S(=O)(=O)c4cc(Cl)cc(Cl)c4)nn3)CC1)c1nnc(C)n1-2 (centres unmarked) [a6d] | 0.9 | – | 800 ± 200 | 1.8 | 787 | 141 | 600 ± 80 | 400 ± 50 | 1.5 | –
Cc1sc2c(c1C)C(c1ccc(Cl)cc1)=NC(CC(=O)N1CCC(CN3CCC(Cn4cc(COCC5CN(Cc6ccccn6)C(=O)C6CCCC5N6S(=O)(=O)c5cc(Cl)cc(Cl)c5)nn4)CC3)CC1)c1nnc(C)n1-2 (centres unmarked) [a8d] | 1.8 | 130 ± 30 | 120 ± 30 | 1 | 357 | 228 | 160 ± 30 | 84 ± 16 | 1.9 | –
Cc1sc2c(c1C)C(c1ccc(Cl)cc1)=NC(CC(=O)NCCOCCOCCn1cc(C3CN(Cc4ccccn4)C(=O)C4CCCC3N4S(=O)(=O)c3cc(Cl)cc(Cl)c3)nn1)c1nnc(C)n1-2 (centres unmarked) [a2c] | 0.6 | 510 ± 110 | – | 0.5 | 620 | 17 | 440 ± 70 | 250 ± 40 | 1.8 | –
Cc1sc2c(c1C)C(c1ccc(Cl)cc1)=NC(CC(=O)NCCOCCn1cc(COC(C)C3CN(Cc4ccccn4)C(=O)C4CCCC3N4S(=O)(=O)c3cc(Cl)cc(Cl)c3)nn1)c1nnc(C)n1-2 (centres unmarked) [a1f] | 1.6 | 50 ± 14 | 230 ± 30 | 0.2 | 560 | 24 | 180 ± 20 | 140 ± 14 | 1.3 | –
Cc1sc2c(c1C)C(c1ccc(Cl)cc1)=NC(CC(=O)N1CCC(CN3CCC(n4cc(COCC5CN(Cc6ccccn6)C(=O)C6CCCC5N6S(=O)(=O)c5cc(Cl)cc(Cl)c5)nn4)CC3)CC1)c1nnc(C)n1-2 (centres unmarked) [a7d] | 2.3 | 700 ± 100 | 660 ± 90 | 1 | 1110 | 209 | 680 ± 70 | 310 ± 50 | 2.2 | –
Cc1sc2c(c1C)C(c1ccc(C#CCNC(=O)COCCn3cc(COCC4CN(Cc5ccccn5)C(=O)C5CCCC4N5S(=O)(=O)c4cc(Cl)cc(Cl)c4)nn3)cc1)=NC(CC(=O)OC(C)(C)C)c1nnc(C)n1-2 (centres unmarked) [b3d] | 1 | 110 ± 30 | – | 0.1 | 266 | 15 | 68 ± 9 | 200 ± 30 | 0.3 | –
Cc1sc2c(c1C)C(c1ccc(Cl)cc1)=NC(CC(=O)NCCOCCn1cc(COC(C)C3CN(Cc4ccccn4)C(=O)C4CCCC3N4S(=O)(=O)c3cc(Cl)cc(Cl)c3)nn1)c1nnc(C)n1-2 (centres unmarked) [a1e] | 8.9 | 33 ± 9 | 60 ± 10 | 0.6 | 390 | 103 | 70 ± 10 | 48 ± 7 | 1.5 | –
Cc1sc2c(c1C)C(c1ccc(Cl)cc1)=NC(CC(=O)N1CCC(N3CCC(n4cc(COCC5CN(Cc6ccccn6)C(=O)C6CCCC5N6S(=O)(=O)c5cc(Cl)cc(Cl)c5)nn4)CC3)CC1)c1nnc(C)n1-2 (centres unmarked) [a9d] | 1.7 | 500 ± 90 | 450 ± 70 | 1.1 | 364 | 169 | 340 ± 40 | 140 ± 10 | 2.4 | –
C=CC1CN(Cc2ccccn2)C(=O)C2CCCC1N2S(=O)(=O)c1cc(Cl)cc(-c2cn(CCOCCOCCNC(=O)CC3N=C(c4ccc(Cl)cc4)c4c(sc(C)c4C)-n4c(C)nnc43)nn2)c1 (centres unmarked) [a2g] | 76 | 580 ± 90 | – | 0.4 | 3070 | – | – | – | 0.4 | –
